Data: patent US12024494B2, “Salt of LSD1 inhibitor and a polymorph thereof” (CSPC ZHONGQI PHARMACEUTICAL TECHNOLOGY (SHIJIAZHUANG) CO., …, priority 2018, dated 2024)

Key:
[1] = Solid stability of the crystal form (XRPD) under high temperature, high humidity and light; assay type: physicochemical
Description: For the samples placed under the conditions of high temperature (60° C.) and high humidity (relative humidity of 92.5% RH), the bottle opening was sealed with an aluminum foil, and some small holes were pierced in the aluminum foil to ensure that the sample can be sufficiently in contact with ambient air, and the samples were placed in the corresponding constant temperature and humidity ovens. The sample exposed to light (open, not covered with aluminum foil) and the control sample (the entire sample bottle was covered with aluminum foil) were placed in a light box. At each time point, 2 samples were weighed as formal test samples. […] The sample bottles were wrapped with an aluminum foil, and the aluminum foil was pierced with small holes. They were also placed in the corresponding constant temperature and humidity ovens. The sample was taken and detected (by XRPD) at the 5th day and 10th day, and the detection results were compared with the initial detection result at 0 day.

[2] = Solvent stability of the crystal form (suspension, 40° C., 2 days); assay type: physicochemical; conditions: for Crystal form: 40° C., 2 days
Description: Appropriate amounts of the compound III were weighed and added to different glass vials, and added respectively with appropriate amount of a solvent or a solvent mixture to prepare a suspension. After added with a magnet rotor and placed at room temperature, the above samples were placed on a constant temperature mixer (40° C.) to be shaken for 2 days (avoid from light). In order to ensure that the sample was as suspended as possible, the amount of the compound and the solvent would be adjusted according to the test phenomenon and even the container used in the experiment may be changed during the experiment. (The dissolved sample was evaporated naturally to dryness).

[3] = test system: human small cell lung cancer NCI-H1417 cell subcutaneous xenograft tumor; assay: In vivo efficacy on NCI-H1417 subcutaneous xenograft tumor in CB-17 SCID mouse; conditions: for TGI (%) (Day 35) / Tumor volume (mm^3) (Day 35): PO, QD
Description: Week age and weight: 6-8 weeks old, weight: 16-21 grams
Human small cell lung cancer NCI-H1417 cells were cultured in a monolayer in vitro with RPMI-1640 medium plus 10% fetal bovine serum, at 37° C. and 5% CO2 to culture and passage. When the cell saturation was 80%-90%, the cells were collected by trypsin-EDTA digestion, counted, adjusted to 10×10^7 cells/mL and resuspended in PBS.
0.2 mL (10×10^6 cells) of NCI-H1417 cells (with Matrigel, volume ratio 1:1) were subcutaneously inoculated on the right back of each mouse. When the average tumor volume reached about 100-150 mm^3, the mice were grouped randomly and started to be administered.
The experimental vehicle was a 0.5% methyl cellulose solution. 5 g of methyl cellulose was weighed, dissolved in 800 mL of ultrapure water, stirred evenly and brought to the volume of 1000 mL with ultrapure water. The test substance was dissolved in the vehicle, prepared into a uniform solution of a certain concentration, and stored at 4° C.
The experimental indicator was to investigate whether the tumor growth was inhibited, delayed or cured. The tumor diameter was measured with a vernier caliper twice a week. The tumor volume is calculated by the formula of V=0.5a×b^2, where a and b represent the long diameter and short diameter of the tumor, respectively.
TGI (%) is used for the anti-tumor efficacy of the compound. TGI (%) reflects the tumor growth inhibition rate. TGI (%)=[(1−(Average tumor volume at the end of the administration of a certain treatment group−average tumor volume at the beginning of the administration of the treatment group))/(Average tumor volume at the end of treatment in the vehicle control group−Average tumor volume at the beginning of the treatment in the vehicle control group)]×100%. Vehicle control group: Vehicle (0.5% methylcellulose solution).

[4] = molecular target: LSD1 (Homo sapiens (Human), UniProt O60341); assay: LSD1 inhibition, enzyme fluorescent conjugated method; assay type: biochemical; conditions: 10 concentrations, initial 10 μM, 3-fold dilution, read-out: IC50 (nM) Mean ± standard deviation
Description: The experiment was conducted in duplicate with an initial concentration of 10 μM diluted in a gradient of 3 times, and it was repeated twice at different dates.
LSD1 buffer composition: 50 mM Tris-HCl, pH 7.5, 0.05% CHAPS, 1% DMSO.
Reaction time: reacted at room temperature for 1 hour
1.2.1 Adding enzyme to a freshly prepared buffer
1.2.2 Adding a DMSO solution of the compound to the enzyme mixture using Acoustic Technology (Echo 550, LabCyte Inc. Sunnyvale, CA) at nL level, and incubating at room temperature for 30 minutes
1.2.3 Adding the substrate to a freshly prepared buffer
1.2.4 Incubating at room temperature for 1 hour
1.2.5 Preparing to test the mixture
1.2.6 Using Perkin Elmer Envision to read data
1.2.7 Using Excel and GraphPad Prism software to analyze data

[5] = Hygroscopicity by dynamic vapor adsorption (DVS); assay type: physicochemical; conditions: 25° C. and 80% RH
Description: Instrument model: SMS DVS Advantage dynamic vapor adsorption instrument Test conditions: a sample (10˜15 mg) was taken and placed in the DVS sample pan for testing.
Balance: dm/dt=0.01%/min (shortest: 10 min, longest: 180 min)
drying: drying at 0% RH for 120 min
RH (%) test step range: 0%-90%-0%
Experimental Materials: SMS DVS Advantage dynamic vapor adsorption instrument

Crystal form ([1]; 0 day (initial)): Crystal Form A
Crystal form ([1]; High humidity (relative humidity 92.5%, open), 5th day): Crystal Form A
Crystal form ([1]; High humidity (relative humidity 92.5%, open), 10th day): Crystal Form A
Crystal form ([1]; High temperature (60° C., open), 5th day): Crystal Form A
Crystal form ([1]; High temperature (60° C., open), 10th day): Crystal Form A
Crystal form ([1]; Light (total illuminance = 1.2 × 10^6 Lux·hr/near ultraviolet = 200 w·hr/m^2, open), 5th day): Crystal Form A
Crystal form ([1]; Light (total illuminance = 1.2 × 10^6 Lux·hr/near ultraviolet = 200 w·hr/m^2, open), 10th day): Crystal Form A
Solid stability (conclusion) ([1]; high temperature, high humidity and strong light): good stability
Crystal form ([2]; Acetonitrile): Crystal form A
Crystal form ([2]; Isopropanol): Crystal form A
Crystal form ([2]; Isopropyl acetate): Crystal form A
Crystal form ([2]; Methanol, dissolved, and then precipitated): Crystal form A
Crystal form ([2]; Tetrahydrofuran): Crystal form A
Solvent stability (conclusion) ([2]; in the solvent): good stability
IC50 [4]: 8 nM
Classification of hygroscopicity [5]: slightly hygroscopic
ΔW (moisture weight gain) [5]: 1.14%
SMILES: N[C@H]1CC[C@H](c2nc(C3(CN[C@@H]4C[C@H]4c4ccccc4)CC3)no2)CC1 [Crystal form A of Compound III]
TGI (%) (Day 35) ([3]; 1 mg/kg): 81.9%
Tumor volume (mm^3) (Day 35) ([3]; 1 mg/kg): 178 ± 17 mm^3
TGI (%) (Day 35) ([3]; 1.5 mg/kg): 99.2%
Tumor volume (mm^3) (Day 35) ([3]; 1.5 mg/kg): 121 ± 15 mm^3
TGI (%) (Day 35) ([3]; 3 mg/kg): 115.6%
Tumor volume (mm^3) (Day 35) ([3]; 3 mg/kg): 68 ± 13 mm^3
Anti-tumor effect (conclusion) ([3]; NCI-H1417 xenograft tumor model): excellent anti-tumor effect
